Laboratory results published in the supplement of paper PMC7840683.
± gives the standard deviation of the averaged measurements.

Tested on: HepaRG
Experiment: LDH release cytotoxicity, % of total lysis control; higher = more cytotoxic
Conditions: 48 h
Outline: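 Eight-point half-log series of test chemicals, the highest at 100 µM, were given in duplicate for 48 h to single-lot HepaRG cells on collagen I-coated 96-well plates in serum-free induction medium with 0.5% DMSO. A Tecan Safire read resorufin fluorescence from CytoTox-ONE as a measure of LDH in 50 µL spent medium, with 0.1% Triton X in total lysis wells. Percent cytotoxicity was normalized to on-plate vehicle and total lysis controls and averaged over the duplicates.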

Structure (SMILES)	LDH release cytotoxicity (0.03162 µM) [%]	LDH release cytotoxicity (0.1 µM) [%]	LDH release cytotoxicity (0.3162278 µM) [%]	LDH release cytotoxicity (1 µM) [%]	LDH release cytotoxicity (3.16228 µM) [%]	LDH release cytotoxicity (10 µM) [%]	LDH release cytotoxicity (31.6228 µM) [%]	LDH release cytotoxicity (100 µM) [%]	LDH release cytotoxicity (0.031623 µM) [%]	LDH release cytotoxicity (0.316228 µM) [%]
CC12CCC3c4ccc(O)cc4CCC3C1CCC2O (stereo not drawn) [17alpha-Estradiol]	-0.65 ± 1.4	-1.91 ± 0.5	-1.67 ± 0.056	-1.6 ± 0.054	-1.26 ± 0.039	-1.72 ± 0.24	-0.072 ± 0.52	1.51 ± 0.69	–	–
CC(C)=CCCC(C)CCO (centres undefined) [Citronellol]	-1.93 ± 0.69	-2.94 ± 0.29	-2.48 ± 0.3	-2.8 ± 0.43	-2.02 ± 0.57	-2.14 ± 0.43	-1.61 ± 0.76	0.398 ± 0.43	–	–
C1CC2OC2CC1C1CO1 (centres undefined) [4-Vinyl-1-cyclohexene dioxide]	-0.357 ± 0.0064	-1.96 ± 0.94	-2.19 ± 0.42	-1.67 ± 0.053	-1.29 ± 0.3	-1.43 ± 0.099	-0.613 ± 1.2	78.1 ± 2.9	–	–
c1ccc(NNc2ccccc2)cc1 [1,2-Diphenylhydrazine]	-1.61 ± 1.4	-1.5 ± 0.65	-1.76 ± 0.62	-2.09 ± 1.2	-1.82 ± 0.17	-1.49 ± 0.079	-1.72 ± 0.59	-0.591 ± 1	–	–
CCN(Cc1c(F)cccc1Cl)c1c([N+](=O)[O-])cc(C(F)(F)F)cc1[N+](=O)[O-] [Flumetralin]	-0.56 ± 1.7	-0.903 ± 0.34	-1.29 ± 0.66	-1.01 ± 0.52	-0.0868 ± 0.54	-0.582 ± 0.92	-0.2 ± 0.43	5.506 ± 0.052	–	–
Cc1ncc(C(CCCCCCc2ccc3c(n2)NCCC3)CC(=O)O)cn1 (centres undefined)	-1.55 ± 0.6	-1.82 ± 1.1	-1.74 ± 0.75	-2.04 ± 0.057	-1.49 ± 1.3	-1.25 ± 0.094	-1.33 ± 0.38	0.986 ± 0.45	–	–
O=C(O)COc1ccc(Cl)cc1Cl [2,4-Dichlorophenoxyacetic acid]	-2.81 ± 0.75	-3.06 ± 0.11	-3.35 ± 0.81	-3.21 ± 0.55	-3.24 ± 0.42	-3.79 ± 0.69	48.3 ± 0.8	69.9 ± 2	–	–
Nc1ccc(Cl)cc1 [4-Chloroaniline]	-1.56 ± 1.1	-0.947 ± 0.94	-2.25 ± 0.86	-1.34 ± 1.4	-0.444 ± 0.82	-1.71 ± 0.56	-1.53 ± 0.87	0.243 ± 0.87	–	–
CCCCC(CC)COC(=O)CCCCC(=O)OCC(CC)CCCC (centres undefined) [Bis(2-ethylhexyl)hexanedioate]	-2.21 ± 0.34	-2.881 ± 0.019	-3.04 ± 0.8	-2.88 ± 0.9	-2.66 ± 0.66	-2.86 ± 0.26	-2.54 ± 0.088	-1.41 ± 0.75	–	–
Cc1ccc2ncccc2c1 [6-Methylquinoline]	-1.09 ± 0.86	-1.74 ± 0.29	-0.691 ± 0.21	-0.702 ± 0.45	1.12 ± 0.71	3.62 ± 0.63	6.32 ± 0.88	12.7 ± 2.4	–	–
Cn1c(-c2ccccc2)cc(-c2ccccc2)[n+]1C [Difenzoquat metilsulfate]	-4.98 ± 0.42	-4.55 ± 0.57	-3.76 ± 0.46	-4.22 ± 0.43	-3.44 ± 0.93	-3.6 ± 0.33	-2.99 ± 2	-1.18 ± 0.17	–	–
NC(Cc1cc(I)c(Oc2ccc(O)c(I)c2)c(I)c1)C(=O)O (centres undefined) [3,5,3'-Triiodothyronine]	–	-3.18 ± 1.4	–	-4.06 ± 0.7	-3.84 ± 0.24	-3.581 ± 0.016	-2.69 ± 1.4	0.489 ± 0.55	-1.22 ± 1.4	-4.73 ± 0.3
CCC(C)(CC)c1cc(NC(=O)c2c(OC)cccc2OC)on1 [Isoxaben]	-2.09 ± 1.5	-2.04 ± 0.44	-2.03 ± 0.16	-2.59 ± 0.72	-2.88 ± 0.57	-1.64 ± 0.83	-1.59 ± 0.14	11.4 ± 1.3	–	–
CCNc1cccc(C)c1 [N-Ethyl-3-methylaniline]	-1.25 ± 0.2	-0.734 ± 0.64	-1.13 ± 0.64	-0.866 ± 0.67	-0.912 ± 0.26	-0.509 ± 0.35	-0.424 ± 0.49	1.66 ± 0.53	–	–
CCNc1nc(Cl)nc(NC(C)C)n1 [Atrazine]	-1.43 ± 0.65	-1.36 ± 0.23	-1.63 ± 1.4	-2.15 ± 1.4	-1.57 ± 0.28	-1.86 ± 1.1	-1.38 ± 0.22	-0.59 ± 0.41	–	–
OCC(CO)(CBr)CBr [Pentaerythritol dibromide]	-0.95 ± 0.41	-1.43 ± 0.67	-2.05 ± 0.21	-2.19 ± 0.11	-1.68 ± 0.31	-1.56 ± 0.1	-0.856 ± 0.31	0.8 ± 1.4	–	–
COc1ccc(C(=CC(=O)N2CCOCC2)c2ccc(Cl)cc2)cc1OC [Dimethomorph]	-0.689 ± 0.5	-1.52 ± 0.24	-1.7 ± 0.055	-1.1 ± 0.47	-0.768 ± 0.71	-0.565 ± 0.54	-0.618 ± 0.33	1.09 ± 0.43	–	–
CCOP(=S)(Oc1cnc(C(C)(C)C)nc1)OC(C)C (centres undefined) [Tebupirimfos]	–	-1.67 ± 1.3	–	-2.26 ± 0.87	-2.34 ± 0.48	-3.02 ± 0.61	-2.48 ± 1.2	-2.06 ± 1.2	0.203 ± 2.2	-2.72 ± 0.73
